Among the data in patent US9914730B2, “Azaquinazoline inhibitors of Atypical protein Kinase C” (Ignyta, Inc., priority 2012, dated 2018) are IC50 values, retold here.

The target of the assay is T1, full-length human PKCι (Homo sapiens, UniProt P41743).
T1 construct: Recombinant, full-length human PKCι expressed in Sf21 insect cells is also commercially available; purchased; host or cells: Sf21 insect cells
T1 sequence (P41743 1-596): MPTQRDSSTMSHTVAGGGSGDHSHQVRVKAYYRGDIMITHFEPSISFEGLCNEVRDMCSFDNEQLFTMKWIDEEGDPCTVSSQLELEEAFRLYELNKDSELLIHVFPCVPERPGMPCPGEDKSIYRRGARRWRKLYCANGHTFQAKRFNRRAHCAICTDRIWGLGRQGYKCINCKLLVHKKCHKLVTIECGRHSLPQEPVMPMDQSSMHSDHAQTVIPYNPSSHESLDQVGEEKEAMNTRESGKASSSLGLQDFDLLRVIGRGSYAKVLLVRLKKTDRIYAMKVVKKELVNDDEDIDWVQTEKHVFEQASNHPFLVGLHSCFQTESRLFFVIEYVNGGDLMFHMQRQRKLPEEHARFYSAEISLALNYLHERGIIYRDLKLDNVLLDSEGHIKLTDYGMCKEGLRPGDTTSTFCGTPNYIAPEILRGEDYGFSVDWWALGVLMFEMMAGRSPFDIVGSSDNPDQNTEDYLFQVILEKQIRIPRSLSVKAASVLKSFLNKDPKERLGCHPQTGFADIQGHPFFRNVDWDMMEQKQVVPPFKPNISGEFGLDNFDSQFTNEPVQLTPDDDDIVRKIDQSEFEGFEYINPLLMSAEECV
In words: PKCι IC50 IMAP assay, full-length PKCι at 150 μM ATP. The class given is biochemical. The settings on record: read-out: IC50 in IMAP assay against full length PKCi at 150 μM ATP. The gist of the method: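 IC50 from IMAP FP (ex 485/em 530 nm) after 60 min room-temperature reaction in pH 7.5 tris buffer with 9 mM MgCl2 and 0.9 mM DTT. Enzyme: full-length Sf21-expressed PKCι (~15 pM); ATP 150 μM, five times KM^APP; FAM-labelled peptide 100 nM; DMSO 4%.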

Structures can show the parent of a compound that is named as a salt.

A word on the IC50: it is the concentration that gives 50% inhibition. Take `Cc1cccc(Cl)c1Nc1cc(-c2nc(N3CCNCC3)c3c(C4CC4)cncc3n2)ccn1` [Example 527, (2-Chloro-6-methyl-phenyl)-[4-(5-cyclopropyl-4-piperazin-1-yl-pyrido[3,4-d]pyrimidin-2-yl)-pyridin-2-yl]-amine]: the half-maximal inhibitory concentration (IC50) is under 0.1 µM.
On to `COc1ccc(C)c(Nc2cc(-c3nc(N4CCNCC4)c4c(C5CC5)cncc4n3)ccn2)c1` [Example 553, [4-(5-Cyclopropyl-4-piperazin-1-yl-pyrido[3,4-d]pyrimidin-2-yl)-pyridin-2-yl]-{5-methoxy-2-methyl-phenyl)-amine], for which the IC50 is under 0.1 µM.
Take `FC(F)(F)CC1CN(c2nc(-c3ccnc(Nc4ccccc4)c3)nc3cncc(C4CC4)c23)CCN1` (stereo not drawn) [Example 643, [4-{5-Cyclopropyl-4-[3-(2,2,2-trifluoro-ethyl)-piperazin-1-yl]-pyrido[3,4-d]pyrimidin-2-yl}-pyridin-2-yl)-phenyl-amine]: the IC50 lay in the range of 1 to 10 µM.
The same measure for `COc1cncc(Nc2cc(-c3nc(N4CCNCC4)c4c(OC)cncc4n3)ccn2)c1` [Example 424, [4-(5-Methoxy-4-piperazin-1-yl-pyrido[3,4-d]pyrimidin-2-yl)-pyridin-2-yl]-(5-methoxy-pyridin-3-yl)-amine]: under 0.1 µM.
In the case of `N#Cc1cccc(Nc2cc(-c3nc(N4CC[C@H](O)[C@H](O)C4)c4c(C5CC5)cncc4n3)ccn2)c1` [Example 711, 3-{4-[5-Cyclopropyl-4-((3R,4S)-3,4-dihydroxy-piperidin-1-yl)-pyrido[3,4-d]pyrimidin-2-yl]-pyridin-2-ylamino}-benzonitrile], the half-maximal inhibitory concentration (IC50) is 0.1 to 1 µM.
The same measure for `COc1cncc2nc(-c3ccnc(NC(=O)Cc4ccc(C#N)cc4)c3)nc(N3CCNCC3)c12` [Example 355, 2-(4-Cyano-phenyl)-N-[4-(5-methoxy-4-piperazin-1-yl-pyrido[3,4-d]pyrimidin-2-yl)-pyridin-2-yl]-acetamide]: under 0.1 µM; for `COc1cncc2nc(-c3ccncc3)nc(N3CCN[C@@H](CO)C3)c12` [Example 46, [(2R)-4-[5-methoxy-2-(pyridin-4-yl)-pyrido[3,4-d]-pyrimidin-4-yl]-piperazin-2-yl]-methanol]: under 0.1 µM; for `COc1cncc2nc(-c3ccncc3)nc(N3CCN[C@@H](C(F)c4ccccc4)C3)c12` (stereo partly drawn) [Example 76, (3R)-3-[fluoro(phenyl)-methyl]-1-[5-methoxy-2-(pyridin-4-yl)-pyrido[3,4-d]-pyrimidin-4-yl]-piperazine]: under 0.1 µM.
Regarding `COc1ccc(CC(=O)Nc2cc(-c3nc(N4CCNCC4)c4c(OC)cncc4n3)ccn2)cc1` [Example 374, 2-(4-Methoxy-phenyl)-N-[4-(5-methoxy-4-piperazin-1-yl-pyrido[3,4-d]pyrimidin-2-yl)-pyridin-2-yl]-acetamide], the concentration for half-maximal inhibition (IC50) was under 0.1 µM.
The same measure for `COc1cc(Nc2cc(-c3nc(N4CCNCC4)c4c(C5CC5)cncc4n3)ccn2)ccc1F` [Example 627, [4-(5-Cyclopropyl-4-piperazin-1-yl-pyrido[3,4-d]pyrimidin-2-yl)-pyridin-2-yl]-(4-fluoro-3-methoxy-phenyl)-amine]: under 0.1 µM.
As for `COc1cncc2nc(-c3ccnc(Nc4ccccc4)c3)nc(N[C@@H]3CCNC3)c12` [Example 238, [5-Methoxy-2-(2-phenylamino-pyridin-4-yl)-pyrido[3,4-d]pyrimidin-4-yl]-(R)-pyrrolidin-3-yl-amine], the IC50 was under 0.1 µM.
For the compound `COc1cncc2nc(-c3ccnc(NC(=O)[C@@H](C)c4ccccc4)c3)nc(N[C@@H]3CCNC3)c12` [Example 407, (S)-N-{4-[5-Methoxy-4-((R)-pyrrolidin-3-ylamino)-pyrido[3,4-d]pyrimidin-2-yl]-pyridin-2-yl}-2-phenyl-propionamide], the IC50 was 0.1 to 1 µM.
As for `Fc1cc(C2CC2)nc(F)c1Nc1cc(-c2nc(N3CCNCC3)c3c(C4CC4)cncc3n2)ccn1` [Example 724, (6-Cyclopropyl-2,4-difluoro-pyridin-3-yl)-[4-(5-cyclopropyl-4-piperazin-1-yl-pyrido[3,4-d]pyrimidin-2-yl)-pyridin-2-yl]-amine; bis-trifluoroacetic salt], the figure is under 0.1 µM; as for `CN(c1nc(-c2ccnc3[nH]c(C(F)(F)F)cc23)nc2c(Cl)ncc(C3CC3)c12)C1CCNCC1` [Example 2136, [8-Chloro-5-cyclopropyl-2-(2-trifluoromethyl-1H-pyrrolo[2,3-b]pyridin-4-yl)-pyrido[3,4-d]pyrimidin-4-yl]-methyl-piperidin-4-yl-amine], under 0.1 µM; as for `O=C(NC1CCCCC1)N1CCN(c2nc(-c3ccncc3)nc3cnccc23)CC1` [Example 57, N-cyclohexyl-4-[2-(pyridin-4-yl)-pyrido[3,4-d]-pyrimidin-4-yl]-piperazine-1-carboxamide], 10 to 40 µM.
Regarding “(2,6-Difluoro-phenyl)-{2-[2-(2,6-difluoro-phenylamino)-pyridin-4-yl]-4-piperazin-1-yl-pyrido[3,4-d]pyrimidin-5-yl}-amine [Example 262]”, the IC50 lay in the range of 0.1 to 1 µM.
As to `CCc1cncc2nc(-c3ccncc3)nc(N3CCNCC3)c12` [Example 136, 1-[5-ethyl-2-(pyridin-4-yl)pyrido[3,4-d]pyrimidin-4-yl]piperazine], the IC50 was under 0.1 µM.
As for `O=C(CC(F)(F)F)Nc1cc(-c2nc(N3CCNCC3)c3c(C4CC4)cncc3n2)ccn1` [Example 613, N-[4-(5-Cyclopropyl-4-piperazin-1-yl-pyrido[3,4-d]pyrimidin-2-yl)-pyridin-2-yl]-3,3,3-trifluoro-propionamide], the figure is under 0.1 µM; as for `COc1cncc2nc(-c3ccnc(Nc4c(F)cc(F)cc4F)c3)nc(N3CCNCC3)c12` [Example 441, [4-(5-Methoxy-4-piperazin-1-yl-pyrido[3,4-d]pyrimidin-2-yl)-pyridin-2-yl]-(2,4,6-trifluoro-phenyl)-amine], under 0.1 µM.
As for `c1cc(-c2nc(N3CCNCC3)c3c(C4CC4)cncc3n2)cc(Nc2ccc3nonc3c2)n1` [Example 2116, Benzo[1,2,5]oxadiazol-5-yl-[4-(5-cyclopropyl-4-piperazin-1-yl-pyrido[3,4-d]pyrimidin-2-yl)-pyridin-2-yl]-amine], the figure is under 0.1 µM; as for `COc1ccc(Nc2cc(-c3nc(N4CCNCC4)c4c(C5CC5)cncc4n3)ccn2)cc1OC` [Example 610, [4-(5-Cyclopropyl-4-piperazin-1-yl-pyrido[3,4-d]pyrimidin-2-yl)-pyridin-2-yl]-(3,4-dimethoxy-phenyl)-amine], under 0.1 µM; as for `NC1CCN(c2nc(-c3ccnc(Nc4c(F)cccc4F)c3)nc3cncc(C4CC4)c23)CC1` [Example 690, {4-[4-(4-Amino-piperidin-1-yl)-5-cyclopropyl-pyrido[3,4-d]pyrimidin-2-yl]-pyridin-2-yl}-(2,6-difluoro-phenyl)-amine], under 0.1 µM.
As for `CN(C)c1ncc(Cl)c2c(N3CCNCC3)nc(-c3ccncc3)nc12` [Example 142, 5-chloro-N,N-dimethyl-4-(piperazin-1-yl)-2-(pyridin-4-yl)pyrido[3,4-d]pyrimidin-8-amine], the IC50 lay in the range of 1 to 10 µM.
The same measure for `COc1cncc2nc(-c3ccncc3)nc(N3CCC(N)(C(=O)N[C@@H](CCO)c4ccc(Cl)cc4)CC3)c12` [Example 154, 4-Amino-1-(5-methoxy-2-pyridin-4-yl-pyrido[3,4-d]pyrimidin-4-yl)-piperidine-4-carboxylic acid [(S)-1-(4-chloro-phenyl)-3-hydroxy-propyl]-amide]: 0.1 to 1 µM.
